# Assay results published in patent US6569839B1, “Fast-acting pharmaceutical compositions and methods of use” (priority 1998, dated 2003).
# Key:
# [1] = 0.5%, continuous perineural infusion around the major nerve; cited from earlier work
# [2] = 1000 units of Heparin with 1 gm of Cefazolin; cited from earlier work
# [3] = tested on: gram negative organisms and many gram positive organisms which include staphylococcus aureus and staphylococcus epidermidis; conditions: cited from earlier work
# [4] = tested on: common bone and joint infections; conditions: cited from earlier work
# [5] = Absorption of antibiotic from the treated wound; assay type: in vivo; conditions: administered to the wound over 24 hour period
# Method: In an embodiment of the present invention, a medicinal solution comprising Chloramphenicol can be prepared such that the patient receives only about 1-½ gm in a 24 hour period. Thus, if 100% was absorbed during the 24 hour period while treating a wound as, for example, following a total knee arthroplasty, the administered 1 ½ gm over a 24 hour is a safe dose, in fact, for three days. Since, however, only approximately 40% of the antibiotic is typically absorbed, the amount that is available to the bone marrow is, thus, very small. For patients with blood dyscrasias a dose of about 2 gm of Cephalosporin or a dose of about 1 gm Septaz can be used in place of a dose of about 1 g of Chloramphenicol for the 24 hour period.
# [6] = 50 to 100 mg I.V. over a 40 to 120 second period; cited from earlier work
# [7] = I.V. every 90 minutes; cited from earlier work
# [8] = in vivo
# [9] = 1 gm interoperatively; total hip or knee joint replacements; 95% without steroid; cited from earlier work
smiles,measurement,setting,value
CCCCN1CCCCC1C(=O)Nc1c(C)cccc1C (centres unmarked) [Bupicocaine],relief of pain,[1],good relief of pain
Cc1nnc(SCC2=C(C(=O)O)N3C(=O)[C@@H](NC(=O)Cn4cnnn4)[C@H]3SC2)s1 [Cefazolin],time compatible,[2],24 h
CC(C)(O/N=C(\C(=O)N[C@@H]1C(=O)N2C(C(=O)[O-])=C(C[n+]3ccccc3)CS[C@H]12)c1csc(N)n1)C(=O)O [Ceftazidime],Bacterial coverage,[3],very good
O=C(N[C@H](CO)[C@H](O)c1ccc([N+](=O)[O-])cc1)C(Cl)Cl [Chloramphenicol],effectiveness as broad-spectrum antibiotic,[4]; against the common bone and joint infections,very effective
same,reported blood toxicity,[4]; in vivo,aplastic anemia and other blood problems
same,fraction of the antibiotic typically absorbed,[5],approximately 40%
CCN(CC)CC(=O)Nc1c(C)cccc1C [Lidocaine],ill effects,[6],without ill effects
same,maximum suggested dose,[7],about 300 mg
CCCCN1CCCCC1C(=O)Nc1c(C)cccc1C (centres unmarked) [Marcaine],complications if dosage is not strictly monitored,[8],critical complications can occur
"C[C@]12CCC(=O)C=C1CC[C@@H]1[C@@H]2[C@@H](O)C[C@@]2(C)[C@H]1CC[C@]2(O)C(=O)COC(=O)CCC(=O)O [Solu-Cortef, Hydrocortisone sodium succinate]",patients who experienced pain with interoperative steroid administration,[9],33%
C[C@H]1C[C@@H]2[C@H]([C@@H](O)C[C@@]3(C)[C@H]2CC[C@]3(O)C(=O)COC(=O)CCC(=O)O)[C@@]2(C)C=CC(=O)C=C12 [Solumedrol],patients who experienced pain with interoperative steroid administration,[9],33%
